# Results published in the supplement of paper PMC10307832.
# Tests used:
# Experiment in all cases: relative viability (nuclei count vs DMSO), 5 days (fraction); higher = more cells survive
# NCI-H1792 = system: NCI-H1792
# In short: (§1)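 Relative viability divides the nuclei count in treated wells by that in vehicle wells. Lung cancer cell lines were seeded in 1536-well plates, dosed by pin tool the next day, and fixed and stained after 5 days in one step with final 0.05% Triton X-100, 1% formaldehyde and 1 ug/ml Hoechst. Dosing was a single drug or a fixed anchor-drug dose plus five library-drug doses (not always all listed) in √10 steps, and values are medians of duplicate plates imaged at 4×.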
# NCI-H1755 = system: NCI-H1755
# In short: as §1
# NCI-H441 = system: NCI-H441
# In short: as §1
# NCI-H522 = system: NCI-H522
# In short: as §1
# LCLC-97TM1 = system: LCLC-97TM1
# In short: as §1
# NCI-H2405 = system: NCI-H2405
# In short: as §1
# LK-2 = system: LK-2
# In short: as §1
# HCC-78 = system: HCC-78
# In short: as §1
# NCI-H1355 = system: NCI-H1355
# In short: as §1
# NCI-H2342 = system: NCI-H2342
# In short: as §1
# HCC-827 = system: HCC-827
# In short: as §1
# ChaGo-K-1 = system: ChaGo-K-1
# In short: as §1
# NCI-H647 = system: NCI-H647
# In short: as §1
# NCI-H2085 = system: NCI-H2085
# In short: as §1
# LOU-NH91 = system: LOU-NH91
# In short: as §1
# PC-3 [JPC-3] = system: PC-3 [JPC-3]
# In short: as §1
# NCI-H1395 = system: NCI-H1395
# In short: as §1
# NCI-H1993 = system: NCI-H1993
# In short: as §1
# NCI-H520 = system: NCI-H520
# In short: as §1
# NCI-H2228 = system: NCI-H2228
# In short: as §1
# NCI-H2009 = system: NCI-H2009
# In short: as §1
# NCI-H661 = system: NCI-H661
# In short: as §1
# SK-MES-1 = system: SK-MES-1
# In short: as §1
structure (smiles),measurement,setting,value
C=C1C(=O)O[C@@H](CCCCCCCC)[C@@H]1C(=O)O [C-75] + NC(=O)Nc1cc(-c2cccc(F)c2)sc1C(=O)N[C@H]1CCCNC1 [AZD7762] (partner 0.2 µM),relative viability,NCI-H1792; first compound 0.08 µM,0.787
same,relative viability,NCI-H1792; first compound 0.253 µM,0.623
same,relative viability,NCI-H1792; first compound 0.8 µM,0.748
same,relative viability,NCI-H1792; first compound 2.53 µM,0.443
same,relative viability,NCI-H1792; first compound 8 µM,0.554
same,relative viability,NCI-H1755; first compound 0.08 µM,0.42
same,relative viability,NCI-H1755; first compound 0.253 µM,0.473
same,relative viability,NCI-H1755; first compound 0.8 µM,0.397
same,relative viability,NCI-H1755; first compound 2.53 µM,0.405
same,relative viability,NCI-H1755; first compound 8 µM,0.416
same,relative viability,NCI-H441; first compound 0.08 µM,1.26
same,relative viability,NCI-H441; first compound 0.253 µM,1.3
same,relative viability,NCI-H441; first compound 0.8 µM,1.05
same,relative viability,NCI-H441; first compound 8 µM,1.06
same,relative viability,NCI-H522; first compound 0.08 µM,0.851
same,relative viability,NCI-H522; first compound 0.253 µM,0.717
same,relative viability,NCI-H522; first compound 0.8 µM,0.846
same,relative viability,NCI-H522; first compound 2.53 µM,0.855
same,relative viability,NCI-H522; first compound 8 µM,0.727
same,relative viability,LCLC-97TM1; first compound 0.08 µM,0.248
same,relative viability,LCLC-97TM1; first compound 0.253 µM,0.581
same,relative viability,LCLC-97TM1; first compound 0.8 µM,0.218
same,relative viability,LCLC-97TM1; first compound 2.53 µM,0.254
same,relative viability,LCLC-97TM1; first compound 8 µM,0.833
same,relative viability,NCI-H2405; first compound 0.08 µM,0.689
same,relative viability,NCI-H2405; first compound 0.253 µM,0.4
same,relative viability,NCI-H2405; first compound 0.8 µM,0.831
same,relative viability,NCI-H2405; first compound 2.53 µM,0.67
same,relative viability,NCI-H2405; first compound 8 µM,0.764
same,relative viability,LK-2; first compound 0.08 µM,0.355
same,relative viability,LK-2; first compound 0.253 µM,0.699
same,relative viability,LK-2; first compound 0.8 µM,0.299
same,relative viability,LK-2; first compound 2.53 µM,0.289
same,relative viability,LK-2; first compound 8 µM,0.255
same,relative viability,HCC-78; first compound 0.08 µM,0.584
same,relative viability,HCC-78; first compound 0.253 µM,0.409
same,relative viability,HCC-78; first compound 0.8 µM,0.579
same,relative viability,HCC-78; first compound 8 µM,0.72
same,relative viability,NCI-H1355; first compound 0.08 µM,0.742
same,relative viability,NCI-H1355; first compound 0.253 µM,0.831
same,relative viability,NCI-H1355; first compound 0.8 µM,0.738
same,relative viability,NCI-H1355; first compound 2.53 µM,0.663
same,relative viability,NCI-H1355; first compound 8 µM,0.764
same,relative viability,NCI-H2342; first compound 0.08 µM,0.569
same,relative viability,NCI-H2342; first compound 0.253 µM,0.562
same,relative viability,NCI-H2342; first compound 0.8 µM,0.45
same,relative viability,NCI-H2342; first compound 2.53 µM,0.458
same,relative viability,NCI-H2342; first compound 8 µM,0.505
same,relative viability,HCC-827; first compound 0.253 µM,0.245
same,relative viability,HCC-827; first compound 0.8 µM,0.201
same,relative viability,HCC-827; first compound 8 µM,0.355
same,relative viability,ChaGo-K-1; first compound 0.08 µM,0.857
same,relative viability,ChaGo-K-1; first compound 0.253 µM,0.921
same,relative viability,ChaGo-K-1; first compound 0.8 µM,0.777
same,relative viability,ChaGo-K-1; first compound 2.53 µM,0.603
same,relative viability,ChaGo-K-1; first compound 8 µM,0.812
same,relative viability,NCI-H647; first compound 0.08 µM,0.412
same,relative viability,NCI-H647; first compound 0.253 µM,0.405
same,relative viability,NCI-H647; first compound 0.8 µM,0.329
same,relative viability,NCI-H647; first compound 2.53 µM,0.444
same,relative viability,NCI-H647; first compound 8 µM,0.373
same,relative viability,NCI-H2085; first compound 0.08 µM,0.95
same,relative viability,NCI-H2085; first compound 0.253 µM,1.09
same,relative viability,NCI-H2085; first compound 0.8 µM,0.919
same,relative viability,NCI-H2085; first compound 2.53 µM,0.943
same,relative viability,NCI-H2085; first compound 8 µM,1
same,relative viability,LOU-NH91; first compound 0.08 µM,0.739
same,relative viability,LOU-NH91; first compound 0.253 µM,0.704
same,relative viability,LOU-NH91; first compound 0.8 µM,0.684
same,relative viability,LOU-NH91; first compound 8 µM,0.818
same,relative viability,PC-3 [JPC-3]; first compound 0.08 µM,0.845
same,relative viability,PC-3 [JPC-3]; first compound 0.253 µM,0.801
same,relative viability,PC-3 [JPC-3]; first compound 0.8 µM,0.801
same,relative viability,PC-3 [JPC-3]; first compound 2.53 µM,0.6
same,relative viability,PC-3 [JPC-3]; first compound 8 µM,0.753
same,relative viability,NCI-H1395; first compound 0.08 µM,0.358
same,relative viability,NCI-H1395; first compound 0.253 µM,0.386
same,relative viability,NCI-H1395; first compound 2.53 µM,0.4
same,relative viability,NCI-H1395; first compound 8 µM,0.413
same,relative viability,NCI-H1993; first compound 0.08 µM,0.959
same,relative viability,NCI-H1993; first compound 0.253 µM,0.998
same,relative viability,NCI-H1993; first compound 0.8 µM,0.772
same,relative viability,NCI-H1993; first compound 2.53 µM,0.687
same,relative viability,NCI-H1993; first compound 8 µM,0.685
Oc1nc(-c2ccc(C(F)(F)F)cc2)nc2c1CSCC2 [XAV939] + O=C(CCCCCCC(=O)Nc1ccccc1)NO [Vorinostat] (partner 1 µM),relative viability,NCI-H1755; first compound 0.08 µM,0.783
same,relative viability,NCI-H1755; first compound 0.253 µM,0.729
same,relative viability,NCI-H1755; first compound 0.8 µM,0.74
same,relative viability,NCI-H1755; first compound 2.53 µM,0.602
same,relative viability,NCI-H441; first compound 0.08 µM,1.02
same,relative viability,NCI-H441; first compound 0.253 µM,0.822
same,relative viability,NCI-H441; first compound 0.8 µM,1.09
same,relative viability,NCI-H441; first compound 2.53 µM,0.782
same,relative viability,NCI-H522; first compound 0.08 µM,1.17
same,relative viability,NCI-H522; first compound 0.253 µM,0.851
same,relative viability,NCI-H522; first compound 0.8 µM,0.718
same,relative viability,NCI-H522; first compound 2.53 µM,0.846
same,relative viability,LCLC-97TM1; first compound 0.08 µM,1.05
same,relative viability,LCLC-97TM1; first compound 0.253 µM,0.686
same,relative viability,LCLC-97TM1; first compound 2.53 µM,0.449
same,relative viability,NCI-H2405; first compound 0.08 µM,0.639
same,relative viability,NCI-H2405; first compound 0.253 µM,0.922
same,relative viability,NCI-H2405; first compound 0.8 µM,0.913
same,relative viability,NCI-H2405; first compound 2.53 µM,0.925
same,relative viability,LK-2; first compound 0.08 µM,0.371
same,relative viability,LK-2; first compound 0.253 µM,0.325
same,relative viability,LK-2; first compound 0.8 µM,0.251
same,relative viability,LK-2; first compound 2.53 µM,0.24
same,relative viability,HCC-78; first compound 0.08 µM,0.526
same,relative viability,HCC-78; first compound 0.253 µM,0.453
same,relative viability,HCC-78; first compound 0.8 µM,0.443
same,relative viability,HCC-78; first compound 2.53 µM,0.415
same,relative viability,NCI-H520; first compound 0.08 µM,0.722
same,relative viability,NCI-H520; first compound 0.8 µM,0.747
same,relative viability,NCI-H520; first compound 2.53 µM,0.717
same,relative viability,NCI-H1355; first compound 0.08 µM,0.688
same,relative viability,NCI-H1355; first compound 0.253 µM,0.546
same,relative viability,NCI-H1355; first compound 0.8 µM,0.552
same,relative viability,NCI-H1355; first compound 2.53 µM,0.445
same,relative viability,NCI-H2342; first compound 0.08 µM,0.791
same,relative viability,NCI-H2342; first compound 0.253 µM,0.705
same,relative viability,NCI-H2342; first compound 0.8 µM,0.768
same,relative viability,NCI-H2342; first compound 2.53 µM,0.533
same,relative viability,NCI-H2228; first compound 0.08 µM,0.639
same,relative viability,NCI-H2228; first compound 0.253 µM,0.589
same,relative viability,NCI-H2228; first compound 0.8 µM,0.775
same,relative viability,NCI-H2228; first compound 2.53 µM,0.597
same,relative viability,HCC-827; first compound 0.08 µM,0.872
same,relative viability,HCC-827; first compound 0.253 µM,0.867
same,relative viability,HCC-827; first compound 0.8 µM,0.803
same,relative viability,HCC-827; first compound 2.53 µM,0.686
same,relative viability,NCI-H2009; first compound 0.08 µM,0.754
same,relative viability,NCI-H2009; first compound 0.253 µM,0.709
same,relative viability,NCI-H2009; first compound 0.8 µM,0.743
same,relative viability,NCI-H2009; first compound 2.53 µM,0.536
same,relative viability,ChaGo-K-1; first compound 0.08 µM,0.751
same,relative viability,ChaGo-K-1; first compound 0.253 µM,0.707
same,relative viability,ChaGo-K-1; first compound 0.8 µM,0.747
same,relative viability,ChaGo-K-1; first compound 2.53 µM,0.643
same,relative viability,NCI-H647; first compound 0.08 µM,0.581
same,relative viability,NCI-H647; first compound 0.253 µM,0.545
same,relative viability,NCI-H647; first compound 0.8 µM,0.496
same,relative viability,NCI-H647; first compound 2.53 µM,0.207
same,relative viability,NCI-H2085; first compound 0.08 µM,0.741
same,relative viability,NCI-H2085; first compound 0.253 µM,0.736
same,relative viability,NCI-H2085; first compound 0.8 µM,0.789
same,relative viability,NCI-H2085; first compound 2.53 µM,0.716
same,relative viability,LOU-NH91; first compound 0.08 µM,0.952
same,relative viability,LOU-NH91; first compound 0.253 µM,0.813
same,relative viability,LOU-NH91; first compound 0.8 µM,0.88
same,relative viability,LOU-NH91; first compound 2.53 µM,0.937
same,relative viability,NCI-H661; first compound 0.08 µM,0.807
same,relative viability,NCI-H661; first compound 0.253 µM,0.674
same,relative viability,NCI-H661; first compound 0.8 µM,0.777
same,relative viability,NCI-H661; first compound 2.53 µM,0.777
same,relative viability,PC-3 [JPC-3]; first compound 0.253 µM,0.76
same,relative viability,PC-3 [JPC-3]; first compound 0.8 µM,0.769
same,relative viability,PC-3 [JPC-3]; first compound 2.53 µM,0.816
same,relative viability,NCI-H1395; first compound 0.08 µM,0.746
same,relative viability,NCI-H1395; first compound 0.253 µM,0.774
same,relative viability,NCI-H1395; first compound 0.8 µM,0.725
same,relative viability,NCI-H1395; first compound 2.53 µM,0.849
same,relative viability,SK-MES-1; first compound 0.08 µM,1.1
same,relative viability,SK-MES-1; first compound 0.253 µM,0.954
same,relative viability,SK-MES-1; first compound 0.8 µM,0.92
same,relative viability,SK-MES-1; first compound 2.53 µM,0.831
same,relative viability,NCI-H1993; first compound 0.08 µM,0.635
same,relative viability,NCI-H1993; first compound 0.253 µM,0.625
same,relative viability,NCI-H1993; first compound 0.8 µM,0.691
same,relative viability,NCI-H1993; first compound 2.53 µM,0.789
